These results are taken from ChEMBL document CHEMBL5576154, “Targeted suppression of oral squamous cell carcinoma by pyrimidine-tethered quinoxaline derivatives” (RSC Med Chem, 2024).

One data set has as its target Pyruvate kinase PKM (Homo sapiens, UniProt P14618). The data set is described as follows: Activation of PKM2 (unknown origin) by LDH enzyme coupled assay.
Data set [1] in a line: Antiproliferative activity against OSCC (unknown origin). Type of data set: functional, cell-based. To be noted: Oral cancer cell.
A short description of data set [2]: Cytotoxicity against normal epithelial cells (unknown origin) incubated for 24 hrs by Alamar blue assay. Type of data set: toxicity, cell-based, Epithelial cell. Background: Alamar Blue is a resazurin reagent that responds to reducing activity.
In data set [3] the test system is CAL-27. As to the kind of experiment: Cytotoxicity against human CAL-27 cells incubated for 24 hrs by Alamar blue assay. To be noted: CAL-27, 24 h.
Data set [4] concerns CAL-27. The data set is described as follows: Induction of apoptosis in human CAL-27 cells assessed as viable cells at IC50 concentration incubated for 24 hrs by Annexin V-FITC/PI staining based flow cytometry analysis (reference value: 97.36%). The class given is functional. On the technique in general: A flow cytometer gives signals particle by particle.
Data set [5] concerns the target Vascular endothelial growth factor receptor 2 (Homo sapiens, UniProt P35968). As to the kind of experiment: Inhibition of human VEGFR2 by ELISA.

Structures are written as SMILES.

Chain of Vascular endothelial growth factor receptor 2 (P35968 whole entry): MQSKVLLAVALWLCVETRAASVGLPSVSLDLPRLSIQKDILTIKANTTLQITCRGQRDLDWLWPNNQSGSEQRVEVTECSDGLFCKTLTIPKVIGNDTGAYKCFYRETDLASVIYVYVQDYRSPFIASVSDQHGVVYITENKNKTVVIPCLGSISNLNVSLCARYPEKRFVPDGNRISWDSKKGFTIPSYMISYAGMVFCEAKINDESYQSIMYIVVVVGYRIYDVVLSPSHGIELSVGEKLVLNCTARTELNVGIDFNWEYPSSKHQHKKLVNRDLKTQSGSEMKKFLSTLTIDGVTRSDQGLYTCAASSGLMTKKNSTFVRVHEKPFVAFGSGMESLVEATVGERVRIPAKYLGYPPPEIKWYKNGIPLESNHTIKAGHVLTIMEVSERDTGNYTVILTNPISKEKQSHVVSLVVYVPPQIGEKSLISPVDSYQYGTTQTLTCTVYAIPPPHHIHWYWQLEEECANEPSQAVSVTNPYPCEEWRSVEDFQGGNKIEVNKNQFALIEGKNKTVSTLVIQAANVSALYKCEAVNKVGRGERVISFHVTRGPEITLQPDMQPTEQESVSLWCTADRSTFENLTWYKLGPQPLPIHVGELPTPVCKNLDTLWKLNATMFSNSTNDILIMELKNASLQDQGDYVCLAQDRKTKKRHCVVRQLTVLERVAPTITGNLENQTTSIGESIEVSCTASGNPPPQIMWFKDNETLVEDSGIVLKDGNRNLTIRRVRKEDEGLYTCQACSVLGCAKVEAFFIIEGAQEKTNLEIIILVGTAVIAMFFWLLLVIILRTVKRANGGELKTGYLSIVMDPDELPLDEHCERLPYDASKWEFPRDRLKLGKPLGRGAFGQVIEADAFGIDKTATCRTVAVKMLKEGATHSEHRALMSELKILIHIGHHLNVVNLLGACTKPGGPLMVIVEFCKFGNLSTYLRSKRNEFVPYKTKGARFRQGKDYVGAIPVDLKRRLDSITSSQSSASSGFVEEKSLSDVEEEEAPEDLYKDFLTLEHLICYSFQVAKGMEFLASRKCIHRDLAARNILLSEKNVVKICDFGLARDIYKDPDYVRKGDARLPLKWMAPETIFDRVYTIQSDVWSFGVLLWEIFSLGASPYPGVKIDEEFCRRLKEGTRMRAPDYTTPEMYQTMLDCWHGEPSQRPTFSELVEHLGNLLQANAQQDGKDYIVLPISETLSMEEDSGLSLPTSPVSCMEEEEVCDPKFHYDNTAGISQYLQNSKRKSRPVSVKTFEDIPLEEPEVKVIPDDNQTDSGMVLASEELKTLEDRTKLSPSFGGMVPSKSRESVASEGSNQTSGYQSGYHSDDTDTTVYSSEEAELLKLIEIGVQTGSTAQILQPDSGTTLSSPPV
Chain of Pyruvate kinase PKM (P14618 whole entry): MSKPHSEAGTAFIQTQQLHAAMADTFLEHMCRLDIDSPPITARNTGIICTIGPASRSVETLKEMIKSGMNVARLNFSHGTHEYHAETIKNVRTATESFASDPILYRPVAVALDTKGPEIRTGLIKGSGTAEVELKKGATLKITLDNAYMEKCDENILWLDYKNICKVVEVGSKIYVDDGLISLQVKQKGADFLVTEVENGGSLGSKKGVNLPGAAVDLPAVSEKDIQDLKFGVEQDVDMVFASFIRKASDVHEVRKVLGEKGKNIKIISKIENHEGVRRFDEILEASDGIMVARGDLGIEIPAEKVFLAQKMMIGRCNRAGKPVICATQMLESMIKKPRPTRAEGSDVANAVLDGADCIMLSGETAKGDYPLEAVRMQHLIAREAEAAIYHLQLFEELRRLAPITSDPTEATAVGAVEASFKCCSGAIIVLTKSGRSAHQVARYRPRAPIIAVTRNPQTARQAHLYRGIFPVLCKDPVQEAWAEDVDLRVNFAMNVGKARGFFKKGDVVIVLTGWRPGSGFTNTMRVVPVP

By EC50 is commonly meant the concentration at which the effect is half-maximal. High values mean weaker potency, low ones greater potency. In turn, `O=S(=O)(c1ccc2c(c1)OCCO2)N1CCN(S(=O)(=O)c2c(F)cccc2F)CC1` had an EC50 on Pyruvate kinase PKM of 0.241 µM.
Usually IC50 stands for the midpoint of a concentration-inhibition curve. High values mean weaker potency in that assay, low ones greater potency in that assay. The molecule `COc1ccc(OC)c(C(=O)/C=C/c2ccc3nccnc3c2)c1` registered a concentration for half-maximal inhibition (IC50) in data set [1] of 7.81 µM. In other words, the single-digit micromolar range.
On to `Clc1cc2ncc(-c3cnc4ncccn34)nc2cc1Cl`, for which 15.8 µM corresponded to half-maximal inhibition in data set [2] (IC50 at 24 h). The same molecule had an IC50 with CAL-27 [3] of 25.3 µM.
The matching figures for `O=C(c1ccccc1)c1ccc2ncc(-c3cnc4ccccn34)nc2c1`: 24.9 µM and 14.6 µM.
In the case of `c1ccc2nc(-c3cnc4ccccn34)cnc2c1`, the half-maximal inhibitory concentration (IC50) with CAL-27 [3] is > 100 µM.
Still for that read-out and setting: next, `FC(F)(F)c1ccc(-c2ccn3c(-c4cnc5ccccc5n4)cnc3n2)cc1`: > 100 µM; `Cc1ccc(-c2ccn3c(-c4cnc5ccccc5n4)cnc3n2)cc1`: 64.8 µM; `c1ccc2nc(-c3cnc4ncccn34)cnc2c1`: > 100 µM.
Still for that read-out and setting: as for `CS(=O)(=O)c1ccc(-c2ccn3c(-c4cnc5ccccc5n4)cnc3n2)cc1`, the figure is > 100 µM.
Take `Brc1ccc2ncc(-c3cnc4ncccn34)nc2c1`: in data set [2], the IC50 at 24 h worked out at 15.2 µM. Moreover, inhibition in the data set with CAL-27 [3] was half-maximal at 21.6 µM (IC50).
For `Clc1ccc(-c2ccn3c(-c4cnc5ccccc5n4)cnc3n2)cc1`, the Activity in the data set on CAL-27 [4] stood at 79.07%.
Regarding `Clc1ccc2ncc(-c3cnc4ncccn34)nc2c1`, the half-maximal inhibitory concentration (IC50) in the data set with CAL-27 [3] was > 100 µM.
For the molecule `Clc1ccc2ncc(-c3cnc4ccccn34)nc2c1`, the IC50 at 24 h in data set [2] was 19.2 µM. The same molecule gave an IC50 in the data set on CAL-27 [3] of 12.8 µM.
In data set [5], `Cc1nc2ccccc2n(CC(=O)Nc2ccc(C(=O)Nc3cccc(Cl)c3)cc2)c1=O` registered an IC50 of 0.0027 µM.
In the case of `Clc1ccccc1-c1ccn2c(-c3cnc4ccccc4n3)cnc2n1`, the IC50 at 24 h in data set [2] stood at 133 µM. The molecule further came in with an IC50 in the data set on CAL-27 [3] of 13.7 µM.
The matching figures for `O=C(c1ccccc1)c1ccc2ncc(-c3cnc4ncccn34)nc2c1`: 16.7 µM and 17 µM.
The corresponding values for `Cc1ccc2ncc(-c3cnc4ccccn34)nc2c1` are 22.5 µM and 18.5 µM.
The corresponding values for `O=[N+]([O-])c1ccc2ncc(-c3cnc4ccccn34)nc2c1` are 20.8 µM and 27.2 µM.
In data set [2], `c1ccc(-c2ccn3c(-c4cnc5ccccc5n4)cnc3n2)cc1` registered an IC50 at 24 h of 47.5 µM. Further, the IC50 with CAL-27 [3] was found to be 10.3 µM.
For `Fc1ccc(-c2ccn3c(-c4cnc5ccccc5n4)cnc3n2)cc1`, the IC50 in the data set with CAL-27 [3] was > 100 µM.
Still for that read-out and setting: as for `Fc1ccccc1-c1ccn2c(-c3cnc4ccccc4n3)cnc2n1`, the figure is > 100 µM; as for `Fc1ccc2ncc(-c3cnc4ncccn34)nc2c1`, > 100 µM; as for `Clc1ccc(-c2ccn3c(-c4cnc5ccccc5n4)cnc3n2)c(Cl)c1`, > 100 µM.
As for `Fc1ccc2ncc(-c3cnc4ccccn34)nc2c1`, the IC50 in the data set with CAL-27 [3] is > 100 µM.
Regarding `Clc1cc2ncc(-c3cnc4ccccn34)nc2cc1Cl`, the IC50 at 24 h in data set [2] worked out at 23.9 µM. In addition, the IC50 in the data set with CAL-27 [3] was found to be 15.1 µM.
The corresponding values for `Brc1ccc2ncc(-c3cnc4ccccn34)nc2c1` are 20.9 µM and 16 µM.
`O=[N+]([O-])c1ccc2ncc(-c3cnc4ncccn34)nc2c1`: the half-maximal inhibitory concentration (IC50) at 24 h in data set [2] was 18.3 µM. In the data set with CAL-27 [3], this molecule yielded an IC50 of 19.7 µM.
On to `Cc1ccc2ncc(-c3cnc4n3C=C=C=N4)nc2c1`, for which the concentration for half-maximal inhibition (IC50) in the data set with CAL-27 [3] was > 100 µM.
